Measured values from patent US10738093B2, “Discovery of cationic nonribosomal peptides as Gram-negative antibiotics through global genome mining” (The Hong Kong University of Science and Technology, priority 2018, dated 2020).
≈ marks a conversion by molar mass, not a printed value. Positions of bridges follow the written chain, without caps; N, C: chain ends. Non-standard residues stand in square brackets, D forms with d. Residues, ends and D or L forms follow the SMILES beside them. *: point of attachment. Octanoyl(7-Me) = CC(C)CCCCCC(=O)*; aThr = C[C@H](O)[C@H](N)C(=O)O; dOrn = NCCC[C@@H](N)C(=O)O; Orn = NCCC[C@H](N)C(=O)O

Legend:
[1] = system: Escherichia coli ATCC 25922; experiment: microbe, parasite or virus in culture; assay type: cell-based; details: ATCC 25922
Experimental: (§1) Minimum inhibitory concentration (MIC) was determined by broth microdilution according to CLSI guidelines. The test medium for most species was Mueller-Hinton broth (MHB). Bacteria were grown overnight to early stationary phase and adjusted in MHB to 5.0×10^5 colony-forming units per mL (c.f.u./mL) in the wells of 96-well microtiter plates, mixed with varying concentrations of test compounds and incubated at 37° C. for 24 h. […] MHBs containing 10% fetal bovine serum (Gibco), 21 mM MgCl, or 1.0 mg/ml LPS (lipopolysaccharides from Escherichia coli O55:B5, Sigma-Aldrich) were used to test their inhibitory effects.

[2] = system: Colistin-resistant E. coli (E. coli ATCC 25922 carrying mcr-1); assay type: cell-based, Escherichia coli
Experimental: as §1

E. coli Top10 [3] = assay type: cell-based, Escherichia coli; details: Top10
Experimental: as §1

Acinetobacter baumannii = assay type: cell-based
Experimental: as §1

Bacillus subtilis 168 = assay type: cell-based; details: 168
Experimental: as §1

Candida albicans = assay type: cell-based
Experimental: as §1

[4] = system: Enterobacter cloacae NRRL-B-413; assay type: cell-based; details: NRRL-B-413
Experimental: as §1

[5] = system: Klebsiella pneumoniae NRRL-B-408; assay type: cell-based; details: NRRL-B-408
Experimental: as §1

[6] = system: Methicillin-resistant Staphylococcus aureus ATCC 43300; assay type: cell-based
Experimental: as §1

[7] = system: Pseudomonas aeruginosa PAO1; assay type: cell-based; details: PAO1
Experimental: as §1

[8] = system: K. pneumoniae NRRL-B-3521; assay type: cell-based, Klebsiella pneumoniae; details: NRRL-B-3521
Experimental: as §1

E. cloacae NRRL-B-425 = assay type: cell-based, Enterobacter cloacae; details: NRRL-B-425
Experimental: as §1

[9] = system: Saccharomyces cerevisiae VL-48; experiment: MIC, Saccharomyces cerevisiae; assay type: cell-based
Experimental: as §1

E. coli Top10 [10] = experiment: Time-kill assay; assay type: cell-based, Escherichia coli
Experimental: An overnight culture of E. coli Top10 or Pseudomonas aeruginosa PAO1 cells was diluted 1:10,000 in MHB and incubated at 37° C. with agitation at 180 rpm for 2 h (early exponential). The bacteria were then challenged with antibiotics at 10×MIC, brevicidine (20 μg/ml), laterocidine (20 μg/ml) or polymyxin B (10 μg/ml) at room temperature without shaking. An untreated sample of cells was used as a negative control. At intervals, 10 μL aliquots were removed, centrifuged at 10,000 g for 1 min and resuspended in 1.0 mL of sterile PBS. Tenfold-serially-diluted suspensions were plated on MHB agar plates and incubated at 37° C. overnight. Colonies were counted and the number of c.fu. per mL was calculated. For analysis of lysis, 300 μL of culture (OD600=1.0) were treated with 10×MIC of antibiotics for 24 h. Experiments were performed in triplicate.

E. coli Top10 [11] = experiment: Bacterial growth kinetics; assay type: cell-based, Escherichia coli; details: E. coli cells exposed to compound
Experimental: A fresh single colony of E. coli Top10 was inoculated into MHB (5 mL) and grown with shaking at 225 rpm overnight. The bacteria were diluted to 1×10^5 c.f.u./mL in fresh MHB, grown […] to early log-phase (OD=0.15) and treated with the antibiotics of interest in the wells of a 96-well plate. Final antibiotic concentrations varied from 1×MIC to 8×MIC. The plate was then incubated at 30° C. overnight, with OD 600 measurements taken every 30 seconds.

[12] = system: Escherichia coli ATCC 25922; experiment: Resistance acquisition during serial passaging; assay type: cell-based; details: serial passaging at subinhibitory concentrations over 30 days
Experimental: Escherichia coli ATCC 25922 was inoculated into MHB overnight at 37° C. with continuous shaking. Cells were diluted 10,000 times in MHB to about 1×10^6 c.f.u./mL. […] Plates with bacteria were incubated at 37° C. without shaking. […] This process was repeated for 30 d, and the final MIC was confirmed by the same antibacterial assay described above. The experiment was performed in quadruplicate, and on each day, the sample that developed the highest resistance was measured to plot the curve.

E. coli ATCC 25922 [13] = experiment: Atomic force microscopy of treated E. coli; assay type: cell-based, Escherichia coli; details: E. coli ATCC25922, 10×MIC
Experimental: (§2) The samples were then centrifuged at 8000 g for 10 min at 4° C., and the pellet was washed twice in 100 lpL of apyrogenic water. The bacteria resuspended in 50 μL of apyrogenic water were applied to mica disks and dried overnight at 28° C. before imaging. Atomic force micrographs were recorded on a Veeco Mulitmode AFM with NanoScope III controller operating in contact mode. The data were analyzed with NanoScope Analysis software v.1.40 (Veeco, USA). Scans were acquired at 25° C. at the rates of 1.0 Hz and 256 samples per line resolution. Downstream image processing and analysis were performed using NanoScope software (Bruker). Height images were flattened to compensate for cell curvature, and topographical sections were used to generate two-dimensional reconstructions of surface texture.

P. aeruginosa PAO1 = experiment: Atomic force microscopy of treated P. aeruginosa; assay type: cell-based, Pseudomonas aeruginosa
Experimental: as §2

E. coli ATCC 25922 [14] = experiment: Neutropenic mouse thigh infection model; assay type: in vivo, Escherichia coli; details: brevicidine 30 mg/kg or laterocidine 15 mg/kg, 2 times, after 26 h
Experimental: In vivo activities of brevicidine and laterocidine were tested using the mouse thigh infection model. Animal studies were performed by Pharmacology Discovery Services Taiwan Ltd. (Taipei, Taiwan) in general accordance with standard guidelines on animal welfare in an AAALAC-accredited facility. The protocol was reviewed and approved by the Institutional Animal Care and Use Committee. Groups of five female specific-pathogen-free ICR (CD-1) mice weighing 22±2 g (˜5 weeks of age) were used. Animals were immunosuppressed with two intraperitoneal injections of cyclophosphamide, the first at 150 mg/kg 4 d before infection (day −4) and the second at 100 mg/kg 1 d before infection (day −1). On day 0, animals were inoculated intramuscularly (0.1 ml/thigh) in the right thigh with an E. coli ATCC 25922 suspension. Vehicle (10% DMSO, 1% Tween 80, 0.9% NaCl) and antibiotics were then subcutaneously injected 2 h and 8 h later. Due to limited amount of compounds 1-2, only one concentration of 1(30 mg/kg) or 2 (15 mg/kg) was used in this study. At 26 h after inoculation, animals were euthanized by CO2 asphyxiation before the muscle of the right thigh was harvested from each test animal. The removed muscle was homogenized in 5 mL of PBS, pH 7.4, with a polytron homogenizer. Homogenates in the amount of 0.1 mL were used for serial tenfold dilutions and plated onto a nutrient agar medium for colony count (c.f.u./g) determination.

CC[C@H](C)[C@@H]1NC(=O)[C@@H](NC(=O)[C@H](Cc2c[nH]c3ccccc23)NC(=O)[C@@H](CCCN)NC(=O)CNC(=O)[C@H](CCCN)NC(=O)[C@@H](CCCN)NC(=O)[C@@H](Cc2c[nH]c3ccccc23)NC(=O)[C@@H](Cc2ccc(O)cc2)NC(=O)[C@@H](CO)NC(=O)CCCCCC(C)C)[C@H](C)OC(=O)CNC(=O)CNC(=O)[C@H](CC(N)=O)NC1=O [Compound 2, 7-Methyl-Octanoyl-D-Ser-D-Tyr-D-Trp-D-Orn-Orn-Gly-D-Orn-Trp-Thr-Ile-Asn-Gly-Gly (cyclized via lactone formation between Thr and the C-terminus)] ({Octanoyl(7-Me)}-[dS][dY][dW][dOrn][Orn]G[dOrn]W[aThr]INGG; ester 9-C)
MIC [1]: 2 mg/L (≈ 1.25 µM)
MIC Ec [1]: 2 mg/L (≈ 1.25 µM)
MIC [2]: 2 mg/L (≈ 1.25 µM)
MIC (E. coli Top10 [3]): 2 mg/L (≈ 1.25 µM)
MIC (Acinetobacter baumannii): 4 mg/L (≈ 2.49 µM)
MIC Ab (Acinetobacter baumannii): 4 mg/L (≈ 2.49 µM)
MIC (Bacillus subtilis 168): 32 mg/L (≈ 19.9 µM)
MIC Bs (Bacillus subtilis 168): 32 mg/L (≈ 19.9 µM)
MIC (Candida albicans): >64 mg/L
MIC Ca (Candida albicans; Table 2, Candida albicans): ND (ND >64 μg/ml)
MIC [4]: 2 mg/L (≈ 1.25 µM)
MIC En [4]: 2 mg/L (≈ 1.25 µM)
MIC [5]: 4 mg/L (≈ 2.49 µM)
MIC ([6]; ATCC 43300): >64 mg/L
MIC MRSA ([6]; Table 2, Methicillin-resistant Staphylococcus aureus ATCC 43300): ND (ND >64 μg/ml)
MIC [7]: 2 mg/L (≈ 1.25 µM)
MIC Pa [7]: 2 mg/L (≈ 1.25 µM)
MIC [8]: 4 mg/L (≈ 2.49 µM)
MIC (E. cloacae NRRL-B-425): 3 mg/L (≈ 1.87 µM)
MIC ([9]; Saccharomyces cerevisiae): >64 mg/L
MIC Sc ([9]; Table 2, Saccharomyces cerevisiae VL-48): ND (ND >64 μg/ml)
time of exposure to significant reduction of viable cells (E. coli Top10 [10]; 10 times the MIC): 30 min
time of exposure to slightly reduced cell viability (E. coli Top10 [10]; 10 times the MIC): 15 min
bactericidal against E. coli (E. coli Top10 [10]; growth kinetics, time-kill assay and lysis assay): bactericidal
time of growth at a reduced rate before steady decrease in cell count (E. coli Top10 [11]): 30 min
development of resistance [12]: development of resistance was not observed
cell morphology by AFM (E. coli ATCC 25922 [13]): lost their regular rod-like shape and became lumpy and rugged
cell morphology by AFM (P. aeruginosa PAO1): lost their regular rod-like shape and became lumpy and rugged
bactericidal efficacy in mouse thigh infection (viable bacteria) (E. coli ATCC 25922 [14]): reduced numbers of viable bacteria
